In assay [1] the test system is Haemophilus influenzae nontypeable bacterium strain adhering to Detroit 562 human pharynx carcinoma cells (DT 562). In words: Inhibition of adhesion of 111-In radiolabeled Haemophilus influenzae to DT 562 human pharynx cells. Format: cell-based. The settings on record: for Activity in adhesion bioassay (in words): adhesion of H. influenzae to human pharynx cells. An excerpt: To determine the ability of various phosphoinositides to prevent the adhesion of Haemophilus influenzae to human nasopharynx cells, the following procedure was used. Detroit 562 human pharynx carcinoma cells (DT 562) were obtained from the American Culture Type Collection. A Haemophilus influenzae nontypeable bacterium strain, which was isolated from the middle ear of an infected child, was obtained from Dr. Lauren Bakaletz of The Ohio State University in Columbus, Ohio.
The DT 562 cells were seeded into Costar 96 well plates at a density of 20,000 to 25,000 cells per well and were cultured in Dulbeco's modified Eagle Medium, available from Grand Island Biological Company. The cells were supplemented with 10% fetal bovine serum (FBS), available from Hyclone. The plates were incubated in a humidified atmosphere of 95% air and 5% carbon dioxide at 37° C. Plates containing cells were washed three times with 20 μL of Hanks Balanced Saline Solution (HBSS), available from Sigma Chemical Company of St. Louis, Mo., to remove serum proteins before the addition of bacteria in adhesion assays.
Haemophilus influenzae was streaked onto Chocolate agar plates, available from Becto Dickinson Diagnostic Instrument System of Sparks, Maryland, from frozen aliquots of a low passage number. The plates were then incubated at 37° C. in a humidified atmosphere of 95% air and 5% carbon dioxide for 18 hours to obtain logarithmically growing cultures. Bacteria harvested in phosphate buffered solution (PBS) supplemented with 0.05% bovine serum albumin (BSA), available from Miles Inc. of Kankakee, Ill., were centrifuged and resuspended in a volume of PBS/BSA yielding an optical density of 2.4 at a wavelength of 660 nm. ^111-Indium-oxine (^111-In), a high-energy, short-lived tracer was utilized to radiolabel the bacteria. Fifty μCi of ^111-In solution was added to 2.5 mL of the bacterial suspension and incubated for 20 minutes at 37° C. The radiolabeled bacteria were then washed two times with 10 mL HBSS to remove unbound ^111-In and resuspended in 5 mL HBSS supplemented with 30 mM 2-hydroxyethylpiperazine-N′-2-ethane sulfonic acid buffer, available from Life Technologies, a producer of Gibco BRL Products, of Grand Island, N.Y. Twenty-five μL of the ^111-In labeled bacterial suspension was preincubated with 25 μL of the test chemical in a polypropylene 96 well plate, available from Costar, for 15 minutes at 37° C. to allow binding of the test agent to the Haemophilus influenzae bacterium.
To determine the adhesion quantitation, the following procedure was used. Twenty-five μL of the preincubation mixture containing radiolabeled bacteria and the test chemical were pipetted into each well of the assay plate containing DT 562 cells. The assay plate was incubated for about 15 to about 20 minutes at 37° C. to allow adhesion of the bacteria to the cell monolayer. Nonadherent bacteria were removed by washing the plate three times in HBSS. The assay was terminated by the addition of 100 μL of 0.05 N sodium hydroxide to disrupt the cell monolayer and the adhering of the Haemophilus influenzae bacterium. The contents of each well were then placed in Cobra polypropylene tubes and counted on a Cobra Gamma Counter, available from Packard Bell. After background radiation was subtracted from each well, the average count of four replicates (per sample) was calculated. Results are presented in Table 1 as the percent of inhibition of bacterial adhesion, as compared to bacterial attachment, in control wells containing no test chemical and in which the percent of inhibition is zero.

The test system of assay [2] is nontypeable Haemophilus influenzae. In words: Neonatal rat model of nasopharyngeal colonisation by nontypeable Haemophilus influenzae. The assay is classed as in vivo. Particulars: for H.I. Recovered Log10 (CFU/mL): intranasal, nasal wash 24 hours after administration, 10 rat pups per group. The method, then:
The attachment of Haemophilus influenzae to a mammal's nasopharynx area is believed to be the first stage of a bacterial infection which can lead to otitis media and other disorders and diseases caused by Haemophilus influenzae. A neonatal rat model was used to test the in vivo activity of phosphoinositides, and more specifically PI-3,4-PP, against nontypeable Haemophilus influenzae .
In the test, overnight cultures of nontypeable Haemophilus influenzae were prepared, washed twice and diluted with HBSS to obtain a bacterial suspension of less than 100,000 colony forming units (CFU) per mL. Sample solutions of the PI-3,4-PP were prepared by dissolving in HBSS at 2 mg/mL. The sample solution was mixed with an equal volume (0.5 mL) of the diluted bacterial suspension and incubated for one hour at 37° C. A bacterial control was prepared by mixing and incubating 0.5 mL HBSS with an equal volume of the diluted bacterial suspension. A solvent blank was prepared by incubating 1 mL of HBSS under the same conditions.
In the test, the experimental and control mixtures were used to inoculate 24-hour-old or younger rat pups at 10 μL each intranasally. Twenty-four hours after administration, samples of nasopharyngeal fluid were obtained by the slow instillation of 25 μL of HBSS into the left naris and the initial 10 μL discharge from the right naris was collected for plate count. This procedure insured that the fluid had passed through the nasopharynx. The nasal wash was then spread, or diluted and then spread, onto chocolate agar plates. The plates were incubated at 37° C. overnight and counted for the number of CFU's, an indicator of the number of viable bacteria.

Setting [3] is: Test Level 0.1 mg/mL, vs control wells without test chemical, average of four replicates.

Several values for one entry are separate records, joined by “and”; a condition that tells them apart may be missing. Identical values can stand only once. Entries after “also recorded” stand apart in the source; their conditions may differ. Marks after values point to notes of the source that are not given here.

For the compound “1-D-myo-inositol-1,2,6-triphosphate sodium salt [I-1,2,6-PPP, reference compound]”, the “% Inhibition of bacterial adhesion” value in assay [1] (setting [3]) is listed as 6* %. Also, the “Activity in adhesion bioassay (in words)” value in assay [1] is “inactive”.

On to “1-D-myo-inositol-1,3,4-triphosphate sodium salt [I-1,3,4-PPP, reference compound]”, for which, in assay [1] (setting [3]), the “% Inhibition of bacterial adhesion” value was −1%. Also, in assay [1], the “Activity in adhesion bioassay (in words)” value is “inactive”.

Take `O=P([O-])(OCC(O)CO)OC1C(O)C(O)C(O)C(O)C1O.[Li+]` [GPI, 1-(a-glycerophosphopoyl)-D-myo-insoitol lithium salt, reference compound]: the “% Inhibition of bacterial adhesion” value in assay [1] (Test Level 0.5 mg/mL) is given as −3%. In assay [1], the “Activity in adhesion bioassay (in words)” value is “inactive”.

Regarding “L-a-phosphatidylinositol ammonium salt [PI, reference compound]”, the “% Inhibition of bacterial adhesion” value in assay [1] (setting [3]) is −2%. Also, in assay [1], the “Activity in adhesion bioassay (in words)” value is “inactive”.

In the case of “L-a-phosphatidylinositol-4-monophosphate sodium salt [PI-4-P]”, in assay [1] (setting [3]), the “% Inhibition of bacterial adhesion” value is listed as 24%. Also, the “Activity in adhesion bioassay (in words)” value in assay [1] was “lower level of activity”.

“dipalmitoylphosphatidylinositol-3,4-diphosphate ammonium salt [PI-3,4-PP]”: the “% Inhibition of bacterial adhesion” value in assay [1] (Test Level 0.006 mg/mL) is 31%; in assay [1] (Test Level 0.013 mg/mL) it was 33%; in assay [1] (Test Level 0.025 mg/mL), 58%; in assay [1] (Test Level 0.050 mg/mL, ammonium salt), 80%; in assay [1] (Test Level 0.050 mg/mL, listed as PI-3,4-P, ammonium salt), “about 80%”; in assay [1] (Test Level 0.1 mg/mL, vs control wells without test chemical, average of four replicates, ammonium salt), 74% and 81%. Also, the “Lowest concentration at which activity was exhibited” value in assay [1] (adhesion inhibition, dose response) is 0.006 mg/mL. The “Activity in adhesion bioassay (in words)” value in assay [1] is “especially active”. Also, the “H.I. Recovered Log10 (CFU/mL)” value in assay [2] (Trial 1, inoculum dose 53 CFU/pup, 1 mg/mL PI-3,4-PP) is 1.34 ± 0.58 Log10 (CFU/mL); in assay [2] (Trial 2, inoculum dose 630 CFU/pup, 1 mg/mL PI-3,4-PP), 2.54 ± 1.08 Log10 (CFU/mL). The “Reduction in the number of bacteria recovered vs untreated group (HI+HBSS)” value in assay [2] (Trial 2, 1 mg/mL PI-3,4-PP, inoculum dose 630-720 CFU/pup) came out at 0.6 log. Besides, in assay [2] (neonatal rats, nasopharynx, ammonium salt), the “Mode of in vivo activity (in words)” value is listed as “not bactericidal; also recorded: inhibits the attachment of nontypeable Haemophilus influenzae to nasopharyngeal cells of neonatal rats”.

As to “dipalmitoylphosphatidylinositol-3-phosphate ammonium salt [PI-3-P]”, the “% Inhibition of bacterial adhesion” value in assay [1] (setting [3]) is 24%. The “Activity in adhesion bioassay (in words)” value in assay [1] was “lower level of activity”.

(Values after US6447797B2, “Antibacterial phosphoinositides” (Abbott Laboratories, priority 1998, dated 2002).)
